Assay results reported in patent US6479435B1, “Diaryl ethers and processes for their preparation and herbicidal and desiccant compositions containing them” (ISK Americas Incorporated, priority 1997, dated 2002).

Columns and labels:
Type in all cases: in vivo
[1] = test system: upland rice (Oryza sp., var.Tebonnet, RICE); assay: Pre-emerge greenhouse test, crop damage rating; settings: 1000 g ai/ha, 14 days after application, rating scale 0-100
From the text: (§1) A standard greenhouse herbicide activity screening system was used to evaluate the herbicidal efficacy and crop safety of these test compounds. Six broadleaf weed species including redroot pigweed (Amaranthus retroflexus, AMARE), velvetleaf (Abutilon theophrasti, ABUTH), sicklepod (Cassia obtusifolia, CASOB), ivyleaf morningglory (Ipomoea hederacea, IPOHE), lambsquarters (Chenopodium album, CHEAL) and common ragweed (Ambrosia artemisiifolia L., AMBEL) were used as test species. Four grass weed species including green foxtail (Setaria viridis, SETVI), barnyardgrass (Echinochloa crusgalli, ECHCG), Johnsongrass (Sorghum halepense, SORHA), and large crabgrass (Digitaria sanguinalis, DIGSA) were also used. In addition, three crop species, field corn (Zea mays L., var. Dekalb 535, CORN), soybean (Glycine max L., var. Pella 86, SOY), and upland rice (Oryza sp., var.Tebonnet, RICE) were included.
(§2) All plants were grown in 10 cm square plastic pots which were filled with a sandy loam soil mix. For preemerge tests, seeds were planted one day prior to application of the test compounds. Immediately after application, test units of the pre-emerge applications were watered at the soil surface to incorporate the test materials. Subsequently, these test units were bottom-watered.
(§3) All test compounds were dissolved in acetone and applied to the test units in a volume of 187 l/ha. Test materials were applied at rates ranging from 125 g ai/ha to 1000 g ai/ha using a track sprayer equipped with a TJ8001E even flow flat fan spray nozzle. Plants were arranged on a shelf so that the top of the canopy (post-emerge) or top of the soil surface (pre-emerge) was 40-45 cm below the nozzle. Pressurized air was used to force the test solution through the nozzle as it was mechanically advanced (via electrically driven chain drive) over the top of all test plants/pots. This application simulates a typical commercial field herbicide application.
(§4) At 14 days after application of the test materials, phytotoxicity ratings were recorded. A rating scale of 0-100 was used as previously described in Research Methods in Weed Science, 2nd edition, B. Truelove, Ed., Southern Weed Science Society, Auburn University, Auburn, Ala., 1977. Briefly, “0” corresponds to no damage and “100” corresponds to complete death of all plants in the test unit. This scale was used both to determine efficacy against weed species and damage to crop species. Herbicide activity data for various compounds of this invention, which are shown by compound number in Tables 1-9, are shown in Tables 13 and 14.

[2] = test system: field corn (Zea mays L., var. Dekalb 535, CORN); assay: Pre-emerge greenhouse test, crop damage rating; settings: 1000 g ai/ha, 14 days after application, rating scale 0-100
From the text: as §1, §2, §3, §4

[3] = test system: large crabgrass (Digitaria sanguinalis, DIGSA); assay: Pre-emerge greenhouse herbicide test, phytotoxicity rating; settings: 1000 g ai/ha, 14 days after application, rating scale 0-100
From the text: as §1, §2, §3, §4

[4] = test system: sicklepod (Cassia obtusifolia, CASOB); assay: as above; settings: 1000 g ai/ha, 14 days after application, rating scale 0-100
From the text: as §1, §2, §3, §4

[5] = test system: barnyardgrass (Echinochloa crusgalli, ECHCG); assay: as above; settings: 1000 g ai/ha, 14 days after application, rating scale 0-100
From the text: as §1, §2, §3, §4

[6] = test system: redroot pigweed (Amaranthus retroflexus, AMARE); assay: as above; settings: 1000 g ai/ha, 14 days after application, rating scale 0-100
From the text: as §1, §2, §3, §4

[7] = test system: green foxtail (Setaria viridis, SETVI); assay: as above; settings: 1000 g ai/ha, 14 days after application, rating scale 0-100
From the text: as §1, §2, §3, §4

[8] = test system: Johnsongrass (Sorghum halepense, SORHA); assay: as above; settings: 1000 g ai/ha, 14 days after application, rating scale 0-100
From the text: as §1, §2, §3, §4

[9] = test system: velvetleaf (Abutilon theophrasti, ABUTH); assay: as above; settings: 1000 g ai/ha, 14 days after application, rating scale 0-100
From the text: as §1, §2, §3, §4

[10] = test system: lambsquarters (Chenopodium album, CHEAL); assay: as above; settings: 1000 g ai/ha, 14 days after application, rating scale 0-100
From the text: as §1, §2, §3, §4

[11] = test system: ivyleaf morningglory (Ipomoea hederacea, IPOHE); assay: as above; settings: 1000 g ai/ha, 14 days after application, rating scale 0-100
From the text: as §1, §2, §3, §4

[12] = test system: soybean (Glycine max L., var. Pella 86, SOY); assay: Post-emerge greenhouse test, crop damage rating; settings: 1000 g al/ha, 14 days after application
From the text: as §1, §3
(§5) In the post-emerge test, a commercial non-ionic surfactant was also included (0.25% v/v) to enhance wetting of the leaf surfaces Qf target plants at rates ranging from 63 g ai/ha to 1000 g ai/ha. For post-emerge tests, seeds were planted 8-21 days prior to the test to allow emergence and good foliage development prior to application of the test substances. At the time of the post-emerge application, plants of all species were usually at the 2-3 leaf stage of development. Post-emerge test units were always bottom-watered.
as §4

[13] = test system: upland rice (Oryza sp., var.Tebonnet, RICE); assay: Post-emerge greenhouse test, crop damage rating; settings: 1000 g al/ha, 14 days after application
From the text: as §1, §3, §5, §4

[14] = test system: field corn (Zea mays L., var. Dekalb 535, CORN); assay: Post-emerge greenhouse test, crop damage rating; settings: 1000 g al/ha, 14 days after application
From the text: as §1, §3, §5, §4

[15] = test system: soybean (Glycine max L., var. Pella 86, SOY); assay: Pre-emerge greenhouse test, crop damage rating; settings: 1000 g ai/ha, 14 days after application, rating scale 0-100
From the text: as §1, §2, §3, §4

[16] = test system: large crabgrass (Digitaria sanguinalis, DIGSA); assay: Post-emerge greenhouse herbicide test, phytotoxicity rating; settings: 1000 g al/ha, 14 days after application
From the text: as §1, §3, §5, §4

[17] = test system: sicklepod (Cassia obtusifolia, CASOB); assay: as above; settings: 1000 g al/ha, 14 days after application
From the text: as §1, §3, §5, §4

[18] = test system: barnyardgrass (Echinochloa crusgalli, ECHCG); assay: as above; settings: 1000 g al/ha, 14 days after application
From the text: as §1, §3, §5, §4

[19] = test system: redroot pigweed (Amaranthus retroflexus, AMARE); assay: as above; settings: 1000 g al/ha, 14 days after application
From the text: as §1, §3, §5, §4

[20] = test system: green foxtail (Setaria viridis, SETVI); assay: as above; settings: 1000 g al/ha, 14 days after application
From the text: as §1, §3, §5, §4

[21] = test system: Johnsongrass (Sorghum halepense, SORHA); assay: as above; settings: 1000 g al/ha, 14 days after application
From the text: as §1, §3, §5, §4

[22] = test system: velvetleaf (Abutilon theophrasti, ABUTH); assay: as above; settings: 1000 g al/ha, 14 days after application
From the text: as §1, §3, §5, §4

[23] = test system: lambsquarters (Chenopodium album, CHEAL); assay: as above; settings: 1000 g al/ha, 14 days after application
From the text: as §1, §3, §5, §4

[24] = test system: ivyleaf morningglory (Ipomoea hederacea, IPOHE); assay: as above; settings: 1000 g al/ha, 14 days after application
From the text: as §1, §3, §5, §4

SMILES	crop damage rating RICE [1]	crop damage rating CORN [2]	phytotoxicity rating DIGSA [3]	phytotoxicity rating CASOB [4]	phytotoxicity rating ECHCG [5]	phytotoxicity rating AMARE [6]	phytotoxicity rating SETVI [7]	phytotoxicity rating SORHA [8]	phytotoxicity rating ABUTH [9]	phytotoxicity rating CHEAL [10]	phytotoxicity rating IPOHE [11]	DIGSA phytotoxicity rating (0-100) [16]	CASOB phytotoxicity rating (0-100) [17]	ECHCG phytotoxicity rating (0-100) [18]	AMARE phytotoxicity rating (0-100) [19]	SETVI phytotoxicity rating (0-100) [20]	SORHA phytotoxicity rating (0-100) [21]	ABUTH phytotoxicity rating (0-100) [22]	CHEAL phytotoxicity rating (0-100) [23]	IPOHE phytotoxicity rating (0-100) [24]	also measured
N#Cc1cccnc1Oc1cc(-n2c(=O)cc3n(c2=O)CCC3)c(F)cc1Cl [Compound 5-9]	50	0	90	30	0	80	90	90	100	100	100	0	30	0	50	10	0	100	70	90	SOY crop damage rating (0-100) [12]: 30; RICE crop damage rating (0-100) [13]: 25; CORN crop damage rating (0-100) [14]: 5; crop damage rating SOY [15]: 50
O=c1cc2n(c(=O)n1-c1cc(Oc3ccc([N+](=O)[O-])cc3)c(Cl)cc1F)CCC2 [Compound 5-2]	50	0	70	0	50	40	90	80	100	100	50	0	0	0	20	10	0	70	40	40	SOY crop damage rating (0-100) [12]: 15; RICE crop damage rating (0-100) [13]: 10; CORN crop damage rating (0-100) [14]: 0; crop damage rating SOY [15]: 10
N#Cc1ccc(Oc2cc(-n3c(=O)cc4n(c3=O)CCC4)c(F)cc2Cl)nc1 [Compound 5-11]	80	30	90	30	95	80	95	99	–	100	80	0	10	20	70	10	20	100	90	90	SOY crop damage rating (0-100) [12]: 40; RICE crop damage rating (0-100) [13]: 25; CORN crop damage rating (0-100) [14]: 15; crop damage rating SOY [15]: 60
O=c1cc2n(c(=O)n1-c1cc(Oc3ncccc3C(F)(F)F)c(Cl)cc1F)CCC2 [Compound 5-10, 2-[4-chloro-2-fluoro-5-(3-trifluoromethyl-2-pyridyloxy)phenyl]-6,7-dihydropyrrolo[1,2-c]pyrimidine-1,3(2H,5H)dione]	–	–	100	0	100	100	100	100	100	100	100	10	30	80	80	20	70	100	80	70	–
